For orientation: logP means the decadic logarithm of the partition coefficient of the neutral form, usually between octanol and water. A high value points to a more lipophilic compound. A word on the logD: it is the decadic logarithm of the distribution of all forms, ionised or not, between an organic phase and buffer at a given pH. Read a high logD as higher lipophilicity.

The values below come from the SangsterLogP compilation.

The structures appear in SMILES notation.

Assay in the first data set: not given
Details: not given
In the case of `CCC(C)NC(=O)C=C(c1ccccc1)c1ccc(Cl)cc1` (stereo not drawn), the logP came out at 4.11.
Regarding `CCC(C)NC(=O)C(=Cc1ccccc1)NC(=O)c1ccccc1` (stereo not drawn), the logP worked out at 2.61.
Regarding `CC(=O)Nc1cnc2ccccc2n1`, the logP came to 1.53.
Same read-out and setting: to `COc1cc(S(C)=O)ccc1-c1cn2cccnc2n1` (stereo not drawn) belongs 0.64; to `CC(=O)Nc1cccc2nccnc12`, 1.06; to `CCC(C)NC(=O)C(=Cc1ccccc1)NC(C)=O` (stereo not drawn), 1.76.
Still for that read-out and setting: under `CCOC(=O)c1n[nH]c2ccc(CC)cc2c1=O` stands 2.01.
Same read-out and setting: to `CCC(C)NC(=O)C=C(N)c1ccc(Cl)cc1` (stereo not drawn) belongs 2.85; to `FC(F)(F)CN(CC(F)(F)F)c1ccc(Br)cc1`, 4.7.
Compound `[O-][n+]1cc(-c2ccccc2)ncc1-c1ccccc1` came in with a logP of 3.27.
For `CCCCOc1ccc(O)cc1`, the logP stood at 2.9.
On the same count and under the same terms, under `CCC(C)c1cccc(C(C)C)c1O` (stereo not drawn) stands 3.85; under `O=NN(CCCl)C(=O)Nc1ccc(Cl)cc1`, 3.16.
In the case of `CC(=O)Nc1ccc2nccnc2c1`, the logP came to 1.
Regarding `CCSC(=O)Oc1cccc2cccnc12`, the logP was 2.74.
Take `CCCC(=CC(=O)NC(C)CC)c1ccc(Cl)cc1` (stereo not drawn): the logP came out at 4.34.
Same read-out and setting: to `COc1cccc(NC(=O)N(CCCl)N=O)c1` belongs 2.66; to `C[C@]12CCC(=O)C=C1CC[C@@H]1[C@@H]2C(=O)C[C@@]2(C)[C@H]1CC[C@]2(O)C(=O)CO`, 1.64.
The compound `CCC(C)NC(=O)C(=Cc1ccccc1)SC` (stereo not drawn) gave a logP of 3.53.
The same measure, in the same setting: under `O=NN(CCCl)C(=O)NC1CCCCCCCCCCC1` stands 5.64.
Same read-out and setting: under `C[C@]1(O)CC[C@H]2[C@@H]3CCC4=CC(=O)CC[C@]4(C)[C@@]3(F)[C@@H](O)C[C@@]21C` stands 2.38; under `O=NN(CCCl)C(=O)Nc1ccccc1`, 2.49; under `CCC(C)c1cccc(C(C)CC)c1O` (stereo not drawn), 4.38.
On the same count and under the same terms, under `CC12CC3(C)CC(C)(C1)CC(NC(=O)N(CCCl)N=O)(C2)C3` stands 5.75.
`CCC(C)NC(=O)C(C)=Cc1ccc(Cl)cc1` (stereo not drawn) had a logP of 3.63.
The same measure, in the same setting: to `CCC(C)NC(=O)C(C)=Cc1ccccc1` (stereo not drawn) belongs 3.08; to `COc1ccnc(C#N)n1`, 0.86; to `FC(F)(F)CN(CC(F)(F)F)c1ccccc1`, 3.69.

Another data set is described as follows: method code SF, from Hansch, C. & Leo, A. (1987). Log P database [Dataset]. Pomona College Medicinal Chemistry Project.
Details: not given
Take `CC(C)=NO`: the logP stood at 0.12.
Compound `CC(=O)c1ccc[nH]1` gave a logP of 0.93.
Regarding `CCCC1=Nc2cc(Cl)ccc2S(=O)(=O)N1`, the logP was found to be 2.04.
The compound `CNC(=O)CSP(=S)(OC)OC` showed a logP of 0.8.
`N#CN=[N+]([O-])c1ccc(F)cc1` registered a logP of 1.8.
In turn, `NC(=S)c1ccccc1` came in with a logP of 1.49.
On the same count and under the same terms, under `CC=NO` stands -0.13; under `O=C(O)c1cc(=O)c2c(OCC(O)COc3cccc4oc(C(=O)O)cc(=O)c34)cccc2o1`, 1.92.
Still for that read-out and setting: under `COc1ccc(C(C)=O)c(O)c1` stands 1.98; under `C#CCCC(=O)N(C)c1ccc(S(=O)(=O)N(C)C)cc1`, 0.88; under `CCc1ccccc1OC(C)=O`, 2.42.
Same read-out and setting: to `CCOC(=O)/C(=C/c1c(Cl)cccc1Cl)C(C)=O` belongs 2.86; to `O=c1cc(-c2ccccc2)oc2cc(O)ccc12`, 3.62.
In the case of `O=S1(=O)NC=Nc2cc(Cl)ccc21`, the logP is 1.01.
On the same count and under the same terms, under `CCOC(=O)OCC` stands 1.21.
Still for that read-out and setting: to `O=[N+]([O-])c1ccc(CCO)cc1` belongs 1.12.
Compound `CCC1(CC)OC(=O)c2ccccc21` came in with a logP of 2.69.
On the same count and under the same terms, to `CN(C(=O)CCCl)c1ccc(S(=O)(=O)N(C)C)cc1` belongs 0.98; to `CC(=O)OC1CCCC(NC(=O)N(CCF)N=O)C1` (stereo not drawn), 1.33.
Still for that read-out and setting: to `CC(=O)Nc1cccs1` belongs 1.1; to `Cc1ccc2[nH]c(C(O)C(O)c3nc4cc(C)ccc4[nH]3)nc2c1` (stereo not drawn), 1.27.
Still for that read-out and setting: to `O=Nc1ccc(O)cc1` belongs 1.29.
Compound `O=S1(=O)NC(C(Cl)Cl)=Nc2cc(Cl)ccc21` gave a logP of 1.81.
Same read-out and setting: under `CC(=O)Oc1cccc([N+](=O)[O-])c1` stands 1.82; under `Fc1c(F)c(F)c(F)c(F)c1F`, 2.22; under `CC1=Nc2ccc(C(F)(F)F)cc2S(=O)(=O)N1`, 1.51.
Consider `CS(=O)(=O)N(c1ccccc1)S(C)(=O)=O`, for which the logP was 0.62.
The same measure, in the same setting: under `C=C(C)CC1(CC)C(=O)NC(=S)NC1=O` stands 2.19; under `N#Cc1ccc(C(N)=O)cc1`, 0.48.
On the same count and under the same terms, under `COc1cc(C=O)ccc1OCCOC(=O)c1ccc(Cl)cc1` stands 3.71; under `Clc1ccc2[nH]c(CCCCCc3nc4cc(Cl)ccc4[nH]3)nc2c1`, 1.98; under `CNP(=O)(OC)Oc1ccc(Cl)cc1Cl` (stereo not drawn), 2.41.
For the compound `Clc1ccc2ncccc2c1`, the logP stood at 2.73.

The data set is the same for the next values; noted with them: pH 1.0.
With `COc1ccccc1OCC(=O)O`, the logD came to 0.98.
Same read-out and setting: to `O=C(O)COc1ccccc1F` belongs 1.39.

Still in this data set, the particulars now being: pH 2.0.
For the compound `O=C(O)c1ncccc1O`, the logD is -1.27.

The data set is the same for the next values; noted with them: pH 3.0.
Compound `CC(=O)OCC1=C(C(=O)O)N2C(=O)C(NC(=O)C(O)c3ccccc3)C2SC1` (stereo not drawn) gave a logD of -0.44.

The data set is the same for the next values; noted with them: pH 6.8.
Turning to `CC(=O)OCOC(=O)C1=C(CSC2(C)N=NN=N2)CSC2C(NC(=O)C(O)c3ccccc3)C(=O)N12` (stereo not drawn), the logD worked out at 0.75.

Staying with this data set, now noted: pH 7.4.
`COc1ccccc1/N=N/N(C)C` displayed a logD of 2.34.
The same measure, in the same setting: to `Cc1c(N(C)C)c(=O)n(-c2ccccc2)c(=O)n1CCO` belongs 0.85; to `CCN(CC)c1c(C)n(C)c(=O)n(-c2ccccc2)c1=O`, 2.11; to `CN(C)/N=N/c1ccccc1Cl`, 3.03.
In the case of `CN(C)/N=C/CCc1ccccc1`, the logD is 2.05.
Still for that read-out and setting: to `Cc1c(N(C)C)c(=O)n(C)c(=O)n1-c1ccccc1` belongs 1.19.

Still in this data set, the particulars now being: pH 11.0.
On to `CN(C)CCc1cccnc1`, for which the logD worked out at 0.82.

Staying with this data set, now noted: pH 12.0.
As to `CC1(C)N=C(N)N=C(N)N1c1cccc([N+](=O)[O-])c1`, the logD came out at 0.06.
Consider `CN(CCO)N=Nc1ccccc1`, for which the logD came out at 1.71.

The data set is the same for the next values; noted with them: pH 13.0.
The compound `CC1(C)N=C(N)N=C(N)N1c1ccc(N)cc1` showed a logD of -0.59.
The same measure, in the same setting: under `Nc1nc(N)c2ncn(COCCO)c2n1` stands -1.06; under `CC(=O)c1cccc(N2C(N)=NC(N)=NC2(C)C)c1`, -0.22.
